The target in assay [1] is T1, CD73 expressed on the MDA-MB-231 cell surface (Homo sapiens, UniProt P21589).
T1 construct: host or cells: MDA-MB-231
T1 sequence (P21589 27-549): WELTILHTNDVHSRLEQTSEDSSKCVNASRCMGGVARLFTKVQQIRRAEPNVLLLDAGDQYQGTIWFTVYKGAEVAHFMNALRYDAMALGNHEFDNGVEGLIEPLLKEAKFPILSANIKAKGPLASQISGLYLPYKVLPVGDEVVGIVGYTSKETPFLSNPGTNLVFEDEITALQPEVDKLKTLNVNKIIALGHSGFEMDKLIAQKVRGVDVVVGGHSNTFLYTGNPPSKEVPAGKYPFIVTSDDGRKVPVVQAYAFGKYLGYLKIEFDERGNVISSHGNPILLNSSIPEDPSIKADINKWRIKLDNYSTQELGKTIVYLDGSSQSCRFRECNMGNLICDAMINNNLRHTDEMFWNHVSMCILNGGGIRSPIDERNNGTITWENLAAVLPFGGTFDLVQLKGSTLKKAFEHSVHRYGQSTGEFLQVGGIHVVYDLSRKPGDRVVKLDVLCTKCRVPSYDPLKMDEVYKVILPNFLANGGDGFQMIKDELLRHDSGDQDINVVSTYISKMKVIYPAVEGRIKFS
Kind of assay: Cell-based CD73 enzyme inhibition assay on MDA-MB-231 cells. Conditions: AMP 100 μM, 3 h (FIG. 2). As to the method: The cell-based CD73 enzyme inhibition assay was performed essentially as described above for the cell-free assay, with the following modifications.
(§1) The cell-based CD73 enzyme inhibition assay was performed essentially as described above for the cell-free assay, with the following modifications. MDA-MB-231 human breast adenocarcinoma cells (ATCC CRM-HTB-26) were seeded at 2×10^4 cells/well/100 μL into 96-well tissue culture-treated plates (Corning Costar cat no. 3596) and incubated overnight at 37° C., 5% CO2. […] The 96-well plate was then centrifuged at 125×g for 5 min at room temperature and ATP (25 μL/well, 100 μM final) was combined with supernatant (25 μL/well) in a white opaque 96-well plate (Corning Costar cat no. 3912).
as §1, with “3912). […] Percent CD73 inhibition (y-axis) versus log10 inhibitor concentration (x-axis) were plotted using GraphPad Prism Version 8 and IC50's calculated using nonlinear regression analysis (Sigmoidal, 4 PL).” for “3912).”

Assay [2] concerns the target T2, CD73 (Homo sapiens, UniProt P21589).
T2 sequence (P21589 27-549): T1 sequence (P21589 27-549)
Kind of assay: Cell-free CD73 enzyme inhibition assay. It counts as biochemical. The following applies: recombinant human CD73 0.1 ng/μL, AMP 100 μM, 25 min at 37° C. (FIG. 1A, 1B). As to the method: The cell-free CD73 enzyme inhibition assay was performed in a 96-well plate format using the CD73 Inhibitor Screening Assay Kit in accordance with the manufacturer's instructions (cat no. 72055, BPS Bioscience). […] Colorimetric detection reagent was then added (100 μL/well) and the free phosphate from the CD73 reaction was measured by reading the absorbance at 630 nm using the EnSpire multimode plate reader (PerkinElmer). Wells without test inhibitor (CD73 positive control) were included on each plate. Blank wells without test inhibitor and CD73 were subtracted from all wells. Percent CD73 inhibition versus inhibitor concentration was plotted using GraphPad Prism Version 8 and IC50's calculated using nonlinear regression analysis (Sigmoidal, 4 PL).
The cell-free CD73 enzyme inhibition assay was performed in a 96-well plate format using the CD73 Inhibitor Screening Assay Kit in accordance with the manufacturer's instructions (BPS Bioscience cat no. 72055). […] Colorimetric detection reagent was then added (100 μL/well) and the free phosphate from the CD73 reaction was measured by reading the absorbance at 630 nm using the EnSpire multimode plate reader (PerkinElmer). Wells without test inhibitor (CD73 positive control) were included on each plate. Blank wells without test inhibitor and CD73 were subtracted from all wells. Percent CD73 inhibition (y-axis) versus log10 inhibitor concentration (x-axis) was plotted using GraphPad Prism Version 8 and IC50's calculated using nonlinear regression analysis (Sigmoidal, 4 PL).

The target in assay [3] is T3, surface-expressed CD73 on human T cells (Homo sapiens, UniProt P21589).
T3 construct: 72400 (T cells); host or cells: human PBMCs / human T cells
T3 sequence (P21589 27-549): T1 sequence (P21589 27-549)
As to the kind of experiment: Human immune cell-based CD73 enzyme inhibition assay (T cells). The following applies: 2.5-3 h. The method, then:
(§2) The human immune cell-based CD73 enzyme inhibition assay was performed essentially as described above For the cell-free assay, with the following modifications. Human PBMCs (cat. no. HUMAN-PBMC-U-211140) or T cells (cat. no. 72400, Stem Cell Tech) were seeded at 8×10^3 cells/well into 96-well tissue culture-treated plates. […] Percent CD73 inhibition versus concentration were plotted using GraphPad Prism Version 8 and IC50's calculated using nonlinear regression analysis ([inhibitor]vs normalized response).

The target of assay [4] is T4, surface-expressed CD73 on human PBMCs (Homo sapiens, UniProt P21589).
T4 construct: 72400 (T cells); host or cells: human PBMCs / human T cells
T4 sequence (P21589 27-549): T1 sequence (P21589 27-549)
Kind of assay: Human immune cell-based CD73 enzyme inhibition assay (PBMCs). The following applies: AMP 300 μM, 2.5-3 h. The method, then:
as §2

For `C#CCOCCOCCOCCOCCOC1CCC2(CC1)CN(c1nc(Cl)nc3c1cnn3[C@@H]1O[C@H](COCP(=O)(O)O)[C@@H](O)[C@H]1O)C2` [Int-258], the IC50 came to 41.4 nM in assay [1] and 26.1 nM in assay [2].
Take `O=C(CCOCCOCCOCCOCCn1cc(COCCOCCOCCOCCOC2CCC3(CC2)CN(c2nc(Cl)nc4c2cnn4[C@@H]2O[C@H](COCP(=O)(O)O)[C@@H](O)[C@H]2O)C3)nn1)Oc1c(F)cc(F)cc1F` [Int-259]: the concentration for half-maximal inhibition (IC50) in assay [3] (T Cells - Experiment 1, AMP 300 μM) came to 1.47 nM; in assay [3] (T Cells - Experiment 2, AMP 300 μM) it was 0.12 nM; in assay [4], 2.87 nM.

Source of the values: patent US20260000781A1, “FC CONJUGATES INCLUDING AN INHIBITOR OF CD73 AND USES THEREOF” (Cidara Therapeutics, Inc., priority 2022, published 2026).
